Source: ChEMBL document CHEMBL5543065, “ATP ion channel P2X7 receptor as a regulatory molecule in the progression of colorectal cancer” (Eur J Med Chem, 2023)

Key:
HCT-116 [1] = assay: Antiproliferative activity against human HCT-116 cells assessed as reduction in cell growth incubated for 72 hrs by MTT assay; type: functional, cell-based; details: HCT-116, 72 h
HCT-116 [2] = assay: Antiproliferative activity against human HCT-116 cells assessed as reduction in cell viability incubated for 24 hrs by CCK-8 assay; type: functional, cell-based; details: HCT-116, 24 h

| SMILES | IC50 (HCT-116 [1]) | IC50 (HCT-116 [2]) |
| --- | --- | --- |
| O=C(Nc1ccc(C(F)(F)F)cc1)Nc1nnc(Sc2cc(NCCCN3CCOCC3)ncn2)s1 | 5520 nM |  |
| O=C1c2ccccc2C(=O)c2c(-c3ccccc3F)noc21 |  | 350 nM |
